For 21 molecules, Ki results are on record in patent US10988459B2 (priority 2015, dated 2021).

Molecules are shown by their SMILES.

The first experiment deals with human RIP1 kinase domain (2-375) (Homo sapiens (Human), UniProt Q13546). The experiment can be described thus: biochemical. The settings on record: Table 3; apparent Ki (Morrison tight-binding fit); 50 nM RIP1 kinase domain, 50 uM ATP, 2 hours incubation; read-out: Ki. The experiment is classed as biochemical. The essentials: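 Ki^app comes from Morrison tight-binding fits of fractional activity versus compound concentration. Activity was read as ADP production, via tracer displacement lowering fluorescence polarization (633 nm laser). Conditions: 2 h, 50 nM insect-cell-expressed enzyme, 50 uM ATP, 30 mM MgCl2, 1 mM DTT, 0.5% DMSO, pH 7.5 Hepes.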
Sequence of human RIP1 kinase domain (2-375) (Q13546 2-375): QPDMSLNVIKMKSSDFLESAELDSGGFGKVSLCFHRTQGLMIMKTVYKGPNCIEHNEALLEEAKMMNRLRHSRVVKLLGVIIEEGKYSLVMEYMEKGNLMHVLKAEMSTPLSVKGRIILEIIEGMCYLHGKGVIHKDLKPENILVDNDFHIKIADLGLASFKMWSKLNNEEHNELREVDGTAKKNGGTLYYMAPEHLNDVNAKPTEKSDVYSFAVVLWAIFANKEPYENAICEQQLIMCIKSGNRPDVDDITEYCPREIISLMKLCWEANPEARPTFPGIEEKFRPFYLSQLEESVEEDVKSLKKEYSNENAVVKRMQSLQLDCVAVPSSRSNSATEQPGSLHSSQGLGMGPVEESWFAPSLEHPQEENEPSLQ
As for `CCC1CCc2n[nH]c(C(=O)N[C@H]3COc4ccccc4N(C)C3=O)c2C1` (stereo partly drawn) [Example 335, 5-ethyl-N-((S)-5-methyl-4-oxo-2,3,4,5-tetrahydrobenzo[b][1,4]oxazepin-3-yl)-4,5,6,7-tetrahydro-2H-indazole-3-carboxamide], the Ki came out at 13 nM.

As to `CN1C(=O)[C@@H](NC(=O)c2ncn3ccc(C(F)(F)F)cc23)CCn2nccc21` [Example 336, (S)-N-(4-methyl-5-oxo-5,6,7,8-tetrahydro-4H-pyrazolo[1,5-a][1,3]diazepin-6-yl)-7-(trifluoromethyl)imidazo[1,5-a]pyridine-1-carboxamide], the Ki was 231 nM.

For the molecule `CN1C(=O)[C@@H](NC(=O)c2n[nH]c3ccc(Cl)cc23)COc2ccccc21` [Example 338, (S)-5-chloro-N-(5-methyl-4-oxo-2,3,4,5-tetrahydrobenzo[b][1,4]oxazepin-3-yl)-1H-indazole-3-carboxamide], the Ki was determined as 21 nM.

The experiment is the same for the next values; noted with them: tight-binding apparent inhibition constant; human RIP1 kinase domain (2-375) 50 nM, 50 uM ATP, 2 hours; read-out: Ki.
Consider `CN1C(=O)[C@@H](NC(=O)c2ncn(Cc3c(F)cccc3F)n2)CCn2nccc21` [Example 343, 1-[(2,6-difluorophenyl)methyl]-N-[(6S)-4-methyl-5-oxo-7,8-dihydro-6H-pyrazolo[1,5-a][1,3]diazepin-6-yl]-1,2,4-triazole-3-carboxamide], for which the Ki was found to be 9.73 nM.

`CN1C(=O)[C@@H](NC(=O)c2nc3n(n2)[C@H](C(F)(F)F)CC3)CCn2nccc21` [Example 344, (5S)—N-[(6S)-4-methyl-5-oxo-7,8-dihydro-6H-pyrazolo[1,5-a][1,3]diazepin-6-yl]-5-(trifluoromethyl)-6,7-dihydro-5H-pyrrolo[1,2-b][1,2,4]triazole-2-carboxamide]: the Ki was 226 nM.

For the molecule `Cc1cc(F)c2c(c1)OC[C@H](NC(=O)c1nc3n(n1)C(C(C)C)CC3)C(=O)N2` (stereo partly drawn) [Example 345, N-[(3S)-6-fluoro-8-methyl-4-oxo-3,5-dihydro-2H-1,5-benzoxazepin-3-yl]-5-isopropyl-6,7-di hydro-5H-pyrrolo[1,2-b][1,2,4]triazole-2-carboxamide], the Ki is 20 nM.

With `CC(C)C1CCc2nc(C(=O)N[C@H]3CCn4nccc4N(C)C3=O)nn21` (stereo partly drawn) [Example 346, 5-isopropyl-N-[(6S)-4-methyl-5-oxo-7,8-dihydro-6H-pyrazolo[1,5-a][1,3]diazepin-6-yl]-6,7-dihydro-5H-pyrrolo[1,2-b][1,2,4]triazole-2-carboxamide], the Ki came out at 175 nM.

For `Cc1cc(F)c2c(c1)OC[C@H](NC(=O)c1nc3n(n1)[C@H](C(F)(F)F)CC3)C(=O)N2` [Example 347, (5S)—N-[(3S)-6-fluoro-8-methyl-4-oxo-3,5-dihydro-2H-1,5-benzoxazepin-3-yl]-5-(trifluoromethyl)-6,7-dihydro-5H-pyrrolo[1,2-b][1,2,4]triazole-2-carboxamide], the Ki turned out to be 4.91 nM.

With `O=C(N[C@H]1COc2cc(F)cc(F)c2NC1=O)c1nc2n(n1)[C@H](C(F)(F)F)CC2` [Example 348, (5S)—N-[(3S)-6,8-difluoro-4-oxo-3,5-dihydro-2H-1,5-benzoxazepin-3-yl]-5-(trifluoromethyl)-6,7-dihydro-5H-pyrrolo[1,2-b][1,2,4]triazole-2-carboxamide], the Ki came to 13.8 nM.

In the case of `CCC1CCc2nc(C(=O)N[C@H]3COc4cc(C)cc(F)c4NC3=O)nn21` (stereo partly drawn) [Example 349, 5-ethyl-N-[(3S)-6-fluoro-8-methyl-4-oxo-3,5-dihydro-2H-1,5-benzoxazepin-3-yl]-6,7-dihydro-5H-pyrrolo[1,2-b][1,2,4]triazole-2-carboxamide], the Ki is 33.5 nM.

For `CN1C(=O)[C@@H](NC(=O)c2nc3n(n2)[C@H](C(F)(F)F)CC3)COc2ccccc21` [Example 350, (5S)—N-[(3S)-5-methyl-4-oxo-2,3-dihydro-1,5-benzoxazepin-3-yl]-5-(trifluoromethyl)-6,7-dihydro-5H-pyrrolo[1,2-b][1,2,4]triazole-2-carboxamide], the Ki is 19.4 nM.

In the case of `CCC1CCc2nc(C(=O)N[C@H]3CCn4nccc4N(C)C3=O)nn21` (stereo partly drawn) [Example 351, 5-ethyl-N-[(6S)-4-methyl-5-oxo-7,8-dihydro-6H-pyrazolo[1,5-a][1,3]diazepin-6-yl]-6,7-di hydro-5H-pyrrolo[1,2-b][1,2,4]triazole-2-carboxamide], the Ki was found to be 394 nM.

In the case of `CCC1CCc2nc(C(=O)N[C@H]3COc4ccccc4N(C)C3=O)nn21` (stereo partly drawn) [Example 355, 5-ethyl-N-[(3S)-5-methyl-4-oxo-2,3-dihydro-1,5-benzoxazepin-3-yl]-6,7-dihydro-5H-pyrrolo[1,2-b][1,2,4]triazole-2-carboxamide], the Ki came out at 52.1 nM.

`CN1C(=O)[C@@H](NC(=O)c2cc3c(cn2)cnn3C(F)(F)F)COc2ccccc21` [Example 356, (S)—N-(5-methyl-4-oxo-2,3,4,5-tetrahydrobenzo[b][1,4]oxazepin-3-yl)-1-(trifluoromethyl)-1H-pyrazolo[4,3-c]pyridine-6-carboxamide]: the Ki is 7.02 nM.

Regarding `O=C(N[C@H]1CCc2cc(F)cc(F)c2NC1=O)c1nc2n(n1)[C@H](C(F)(F)F)CC2` [Example 357, (5S)—N-[(3S)-7,9-difluoro-2-oxo-1,3,4,5-tetrahydro-1-benzazepin-3-yl]-5-(trifluoromethyl)-6,7-dihydro-5H-pyrrolo[1,2-b][1,2,4]triazole-2-carboxamide], the Ki came to 46.1 nM.

Consider `CN1C(=O)[C@@H](NC(=O)c2ncc3cnn(C(F)(F)F)c3n2)COc2ccccc21` [Example 360, N-[(3S)-5-methyl-4-oxo-2,3-dihydro-1,5-benzoxazepin-3-yl]-1-(trifluoromethyl)pyrazolo[3,4-d]pyrimidine-6-carboxamide], for which the Ki stood at 10.4 nM.

Consider `CN1C(=O)[C@@H](NC(=O)c2nc3n(n2)C(c2nccn2C)CC3)COc2ccccc21` (stereo partly drawn) [Example 361, 5-(1-methylimidazol-2-yl)-N-[(3S)-5-methyl-4-oxo-2,3-dihydro-1,5-benzoxazepin-3-yl]-6,7-dihydro-5H-pyrrolo[1,2-b][1,2,4]triazole-2-carboxamide], for which the Ki was determined as 511 nM.

With `CC(=O)c1cc2n(n1)CC[C@H](NC(=O)c1ncn(Cc3ccccc3)n1)C(=O)N2C` [Example 366, (S)—N-(2-acetyl-4-methyl-5-oxo-5,6,7,8-tetrahydro-4H-pyrazolo[1,5-a][1,3]diazepin-6-yl)-1-benzyl-1H-1,2,4-triazole-3-carboxamide], the Ki came out at 17.3 nM.

For `CN1C(=O)[C@@H](NC(=O)c2nc3cccc(-c4ccccc4)n3n2)COc2ccccc21` [Example 373, (S)—N-(5-methyl-4-oxo-2,3,4,5-tetrahydrobenzo[b][1,4]oxazepin-3-yl)-5-phenyl-[1,2,4]triazolo[1,5-a]pyridine-2-carboxamide], the Ki came to 4.3 nM.

For the molecule `CCc1cccc2nc(C(=O)N[C@H]3CCn4nccc4N(C)C3=O)nn12` [Example 374, (S)-5-ethyl-N-(4-methyl-5-oxo-5,6,7,8-tetrahydro-4H-pyrazolo[1,5-a][1,3]diazepin-6-yl)-[1,2,4]triazolo[1,5-a]pyridine-2-carboxamide], the Ki stood at 269 nM.

For the molecule `CN1C(=O)[C@@H](NC(=O)c2nc3cccc(-c4ccccc4)n3n2)CCn2nccc21` [Example 375, (S)—N-(4-methyl-5-oxo-5,6,7,8-tetrahydro-4H-pyrazolo[1,5-a][1,3]diazepin-6-yl)-5-phenyl-[1,2,4]triazolo[1,5-a]pyridine-2-carboxamide], the Ki is 28 nM.
